Results reported in patent publication US20260125375A1 (Pfizer Inc., priority 2022, published 2026).

Columns and labels:
[1] = target: T1, CBL-B (residues 36-427) (Homo sapiens, UniProt Q13191); experiment: Ligand Displacement Assay (LDA), HTRF competitive binding against BODIPY-labeled fluorescent tracer, CBL-B; conditions: geometric mean of the number of tests, read-out: CBL-B Ki (nM) GMean
T1 construct: Purified CBL-B (residues 36-427) and C-CBL (residues 46-435) proteins from baculovirus-infected insect cells; made in house; host or cells: baculovirus-infected insect cells
Outline: (§1)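 First, the insect-cell-expressed protein is biotinylated at its amino-terminal AviTag with BirA and coupled to SA-Tb. Next, the tracer KD is determined for each protein. Finally, compounds are titrated three-fold in duplicate […], at 2% DMSO, and Ki is reported as a geometric mean.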

[2] = target: T2, WT CBL-B (36-427) (Homo sapiens, UniProt Q13191); experiment: Surface Plasmon Resonance (SPR) assay, binding affinity and kinetics, CBL-B; conditions: SPR at 10° C., biotinylated WT CBL-B (36-427) on streptavidin chip; geometric mean; read-out: CBL-B SPR Kd (nM) GMean
T2 construct: N-terminal biotinylated WT CBL-B (36-427) and C-CBL (46-435) were captured on a streptavidin (SA) coated sensor chip
Outline: (§2)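 SPR kinetics at 10° C, run either single-cycle (0.001–1 μM, 3-fold, 6 points, 120 s on, >5400 s off) or multi-cycle (10 points, 2-fold, top 10 or 100 μM, 90 s on). Proteins were N-biotinylated CBL-B (36-427) and C-CBL (46-435) on SA surfaces, in pH 7.2 HEPES, 2% DMSO.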

[3] = target: T3, C-CBL (residues 46-435) (Homo sapiens, UniProt P22681); experiment: Ligand Displacement Assay (LDA), HTRF competitive binding against BODIPY-labeled fluorescent tracer, C-CBL; conditions: geometric mean of the number of tests, read-out: C-CBL Ki (nM) GMean
T3 construct: Purified CBL-B (residues 36-427) and C-CBL (residues 46-435) proteins from baculovirus-infected insect cells; made in house; host or cells: baculovirus-infected insect cells
T3 sequence (P22681 46-435): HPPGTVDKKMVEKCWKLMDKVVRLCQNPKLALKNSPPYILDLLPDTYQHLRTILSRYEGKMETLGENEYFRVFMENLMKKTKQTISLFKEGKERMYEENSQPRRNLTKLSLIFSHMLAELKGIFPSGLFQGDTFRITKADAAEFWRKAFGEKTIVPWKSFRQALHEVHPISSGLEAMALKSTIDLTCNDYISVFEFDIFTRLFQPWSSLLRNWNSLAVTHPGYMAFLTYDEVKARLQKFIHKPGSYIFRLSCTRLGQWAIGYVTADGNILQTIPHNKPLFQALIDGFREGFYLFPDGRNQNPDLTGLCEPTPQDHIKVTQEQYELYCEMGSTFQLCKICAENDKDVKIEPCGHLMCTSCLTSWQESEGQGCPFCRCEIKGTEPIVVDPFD
Outline: as §1

[4] = target: T4, C-CBL (46-435) (Homo sapiens, UniProt P22681); experiment: Surface Plasmon Resonance (SPR) assay, binding affinity and kinetics, C-CBL; conditions: SPR at 10° C., biotinylated C-CBL (46-435) on streptavidin chip; geometric mean; read-out: C-CBL SPR Kd (nM) GMean
T4 construct: N-terminal biotinylated WT CBL-B (36-427) and C-CBL (46-435) were captured on a streptavidin (SA) coated sensor chip
T4 sequence (P22681 46-435): T3 sequence (P22681 46-435)
Outline: as §2

| Structure (SMILES) | Ki [1] [nM] | Kd [2] [nM] | Ki [3] [nM] | Kd [4] [nM] |
| --- | --- | --- | --- | --- |
| CCNC(C)c1nc(C(F)(F)F)cc2c(-c3cccc([C@H](c4nncn4C)C4CCC4)c3)n[nH]c12 (single isomer, unassigned) [Example C90] | 9.4 | 5.1 | 93.3 | 169 |
| C[C@@H](c1nc(C(F)(F)F)cc2c(-c3cccc(C4(Cc5nncn5C)COC4)c3)n[nH]c12)N1CC(F)C1 (single isomer, unassigned) [Example D43] | 14.5 | 6.7 | 75.1 | 80.2 |
| Cn1cnnc1[C@@H](c1cccc(-c2n[nH]c3c(CNC4CCNC(=O)C4)nc(C(F)(F)F)cc23)c1)C1CCC1 (single isomer, unassigned) [Example C87] | 21.2 | 8.4 | 210 | 175 |
| C[C@H](N[C@H]1C[C@H](O)C1)c1nc(C(F)(F)F)cc2c(-c3cccc([C@H](c4nncn4C)C4CCC4)c3)n[nH]c12 (single isomer, unassigned) [Example C91] | 12.7 | 5.1 | 105 | 129 |
| CC(O)c1nc(C(F)(F)F)cc2c(-c3cccc(C4(Cc5nncn5C)COC4)c3)n[nH]c12 (single isomer, unassigned) [Example K10, (1ξ)-1-[3-(3-{3-[(4-methyl-4H-1,2,4-triazol-3-yl)methyl]oxetan-3-yl}phenyl)-5-(trifluoromethyl)-1H-pyrazolo[3,4-c]pyridin-7-yl]ethan-1-ol] | 45.1 | 23.5 | 219 | 291 |
| Cn1cnnc1CC1(c2cccc(-c3n[nH]c4c(CN5CCC5)nc(C(F)(F)F)cc34)c2)COC1 [Example C61, 7-[(azetidin-1-yl)methyl]-3-(3-{3-[(4-methyl-4H-1,2,4-triazol-3-yl)methyl]oxetan-3-yl}phenyl)-5-(trifluoromethyl)-1H-pyrazolo[3,4-c]pyridine] | 53 | 12.8 | 232 | 99.8 |
| CC(=O)NCC(C)c1nc(C(F)(F)F)cc2c(-c3cccc([C@H](c4nncn4C)C4CCC4)c3)n[nH]c12 (single isomer, unassigned) [Example M4] | 20.5 | 10.3 | 157 | 250 |
| CCNC(C)c1nc(C(F)(F)F)cc2c(-c3cccc(C4(Cc5nncn5C)COC4)c3)n[nH]c12 (single isomer, unassigned) [Example C83, (1ξ)-N-ethyl-1-[3-(3-{3-[(4-methyl-4H-1,2,4-triazol-3-yl)methyl]oxetan-3-yl}phenyl)-5-(trifluoromethyl)-1H-pyrazolo[3,4-c]pyridin-7-yl]ethan-1-amine] | 37.1 | 12.4 | 137 | 161 |
| CCNCc1nc(C(F)(F)F)cc2c(-c3cccc(C4(Cc5nncn5C)COC4)c3)n[nH]c12 [Example C56, N-{[3-(3-{3-[(4-methyl-4H-1,2,4-triazol-3-yl)methyl]oxetan-3-yl}phenyl)-5-(trifluoromethyl)-1H-pyrazolo[3,4-c]pyridin-7-yl]methyl}ethanamine] | 43.6 | 11 | 201 | 150 |
| CC(C)NCc1nc(C(F)(F)F)cc2c(-c3cccc([C@H](c4nncn4C)C4CCC4)c3)n[nH]c12 [Example D80] | 23 | 9.5 | 181 | 306 |
| Cc1nccc2c(-c3cccc([C@H](c4nncn4C)C4CCC4)c3)n[nH]c12 [Example A7, 3-{3-[(R)-cyclobutyl(4-methyl-4H-1,2,4-triazol-3-yl)methyl]phenyl}-7-methyl-1H-pyrazolo[3,4-c]pyridine] | 83.8 | 31 | 767 | 1300 |
| CC(=O)NCC(C)c1nc(C(F)(F)F)cc2c(-c3cccc([C@H](c4nncn4C)C4CCC4)c3)n[nH]c12 (single isomer, unassigned) [Example M5] | 52.5 | 14.2 | 527 | 741 |
| C[C@@H](c1nc(C(F)(F)F)cc2c(-c3cccc(C4(Cc5nncn5C)COC4)c3)n[nH]c12)N1CCNC(=O)C1 (single isomer, unassigned) [Example D51] | 5.7 | 2.7 | 19.6 | 15 |
| C[C@@H](c1nc(C(F)(F)F)cc2c(-c3cccc(C4(Cc5nncn5C)COC4)c3)n[nH]c12)N1CC(F)(F)C1 (single isomer, unassigned) [Example D45] | 19.9 | 5.2 | 80.3 | 83.9 |
| Cn1cnnc1[C@@H](c1cccc(-c2n[nH]c3c(C4CCCCN4)nc(C(F)(F)F)cc23)c1)C1CCC1 (single isomer, unassigned) [Example L1] | 74.2 | 40.7 | 439 | 697 |
| Cn1cnnc1[C@@H](c1cccc(-c2n[nH]c3c(CN4CCC4)nc(C(F)(F)F)cc23)c1)C1CCC1 [Example D83] | 27.7 | 7.6 | 198 | 177 |
| Cn1cnnc1[C@@H](c1cccc(-c2n[nH]c3cnc(Cl)cc23)c1)C1CCC1 [Example A3, 5-chloro-3-{3-[(R)-cyclobutyl(4-methyl-4H-1,2,4-triazol-3-yl)methyl]phenyl}-1H-pyrazolo[3,4-c]pyridine] | 31.1 | 12.9 | 362 | 301 |
| C[C@@H](c1nc(C(F)(F)F)cc2c(-c3cccc(C4(Cc5nncn5C)COC4)c3)n[nH]c12)N1CCCC1 (single isomer, unassigned) [Example D47] | 36.9 | 16.3 | 162 | 193 |
| Cn1cnnc1CC1(c2cccc(-c3n[nH]c4c(CN5C[C@@H](F)[C@H](F)C5)nc(C(F)(F)F)cc34)c2)COC1 [Example C66, 7-{[(3R,4R)-3,4-difluoropyrrolidin-1-yl]methyl}-3-(3-{3-[(4-methyl-4H-1,2,4-triazol-3-yl)methyl]oxetan-3-yl}phenyl)-5-(trifluoromethyl)-1H-pyrazolo[3,4-c]pyridine] | 20 | 9.6 | 112 | 97 |
| Cn1cnnc1CC1(c2cccc(-c3n[nH]c4c(CN5CC(F)C5)nc(C(F)(F)F)cc34)c2)COC1 [Example C65, 7-[(3-fluoroazetidin-1-yl)methyl]-3-(3-{3-[(4-methyl-4H-1,2,4-triazol-3-yl)methyl]oxetan-3-yl}phenyl)-5-(trifluoromethyl)-1H-pyrazolo[3,4-c]pyridine] | 21.8 | 4.9 | 126 | 127 |
| Cn1cnnc1[C@@H](c1cccc(-c2n[nH]c3c(CN[C@@H]4CCC[C@H]4O)nc(C(F)(F)F)cc23)c1)C1CCC1 [Example C121, (1R,2R)-2-({[3-{3-[(R)-cyclobutyl(4-methyl-4H-1,2,4-triazol-3-yl)methyl]phenyl}-5-(trifluoromethyl)-1H-pyrazolo[3,4-c]pyridin-7-yl]methyl}amino)cyclopentan-1-ol] | 18.9 | 3.3 | 111 | 113 |
| CC(C)NCc1nc(C(F)(F)F)cc2c(-c3cccc(C4(Cc5nncn5C)COC4)c3)n[nH]c12 [Example C53, N-{[3-(3-{3-[(4-methyl-4H-1,2,4-triazol-3-yl)methyl]oxetan-3-yl}phenyl)-5-(trifluoromethyl)-1H-pyrazolo[3,4-c]pyridin-7-yl]methyl}propan-2-amine] | 66.6 | 61.8 | 312 | 747 |
| CC(N[C@@H]1CCOC1)c1nc(C(F)(F)F)cc2c(-c3cccc(C4(Cc5nncn5C)COC4)c3)n[nH]c12 (single isomer, unassigned) [Example C85] | 15.2 | 2.1 | 92.5 | 82.5 |
| Cn1cnnc1[C@@H](c1cccc(-c2n[nH]c3c(CN4CCCCC4)nc(C(F)(F)F)cc23)c1)C1CCC1 [Example D95] | 40.7 | 6.5 | 360 | 226 |
